Consider 23 compounds from patent US10052331B2, “3-(3H-imidazo[4,5-C]pyridin-2-yl)-1H-pyrazolo[3,4-C]pyridine and therapeutic uses thereof” (Samumed, LLC, priority 2014, dated 2018).

Some results are limits rather than exact numbers.

The assay has as its system Wnt activity (Wnt-responsive Sp5 promoter-luciferase reporter in SW480 cells). The assay is described as follows: Wnt activity screening assay: Sp5-Luc reporter gene in SW480 colon carcinoma cells. Type of assay: cell-based. The note with it: Homo sapiens. The source says: The screening assay for Wnt activity is described as follows. Reporter cell lines can be generated by stably transducing cancer cell lines (e.g., colon cancer) or primary cells (e.g., IEC-6 intestinal cells) with a lentiviral construct that includes a Wnt-responsive promoter driving expression of the firefly luciferase gene.
SW480 colon carcinoma cells were transduced with a lentiviral vector expressing luciferase with a human Sp5 promoter consisting of a sequence of eight TCF/LEF binding sites. SW480 cells stably expressing the Sp5-Luc reporter gene and a hygromycin resistance gene were selected by treatment with 150 μg/ml of hygromycin for 7 days. These stably transduced SW480 cells were expanded in cell culture and used for all further screening activities. For Sp5-Luc reporter gene assays, the cells were plated at 10,000 cells/well in 96-well plates with growth medium containing 10% fetal calf serum and incubated overnight at 37° C. and 5% CO2. Each compound was dissolved in DMSO as a 10 mM stock in standard j-vials and used to prepare compound source plates in dose-response format with 3-fold serial dilutions and a 10 mM top concentration. Compound transfer from serially diluted source plates to assay plates containing the cells was accomplished using a pintool (Multimek 96, Beckman equipped with V&P Scientific FP1S50H pins) based liquid handling protocol. This protocol used a slotted pin to transfer 50 nl of compound from a source plate well to an assay plate well containing 50 μl of cells in growth medium. […] Control wells received 50 nl of DMSO treatment for normalization and calculating IC50 values. The treated cells were incubated at 37° C. and 5% CO2 for an additional forty-two hours. Following incubation, the growth medium was removed and 50 μl of BrightGlo luminescence reagent (Promega) was added to each well of the 96-well assay plates. The plates were placed on an orbital shaker for 5 min and then luminescence was quantified on the Victor3 (Perkin Elmer) plate reader. Readings were normalized to DMSO only treated cells, and normalized activities were utilized for IC50 calculations using the dose-response log (inhibitor) vs. response-variable slope (four parameters) nonlinear regression feature available in GraphPad Prism 5.0 or 6.0.
Turning to `Fc1cccc(-c2cncc3[nH]c(-c4n[nH]c5cnc(-c6cncc(OC7CCCCC7)c6)cc45)nc23)c1` [Compound 891, 5-(5-(Cyclohexyloxy)pyridin-3-yl)-3-(7-(3-fluorophenyl)-3H-imidazo[4,5-c]pyridin-2-yl)-1H-pyrazolo[3,4-c]pyridine], half-maximal inhibition (IC50) was put at 735 nM. Then `Fc1cccc(-c2cncc3[nH]c(-c4n[nH]c5cnc(-c6cn[nH]c6)cc45)nc23)c1` [Compound 887, 3-(7-(3-Fluorophenyl)-3H-imidazo[4,5-c]pyridin-2-yl)-5-(1H-pyrazol-4-yl)-1H-pyrazolo[3,4-c]pyridine], with 6 nM; and `CCCCC(=O)Nc1cncc(-c2cc3c(-c4nc5c(-c6ccccc6F)cncc5[nH]4)n[nH]c3cn2)c1` [Compound 70, N-(5-(3-(7-(2-Fluorophenyl)-3H-imidazo[4,5-c]pyridin-2-yl)-1H-pyrazolo[3,4-c]pyridin-5-yl)pyridin-3-yl)pentanamide], with 127 nM; and `CCCC(=O)Nc1cncc(-c2cc3c(-c4nc5c(-c6cccc(F)c6)cncc5[nH]4)n[nH]c3cn2)c1` [Compound 17, N-(5-(3-(7-(3-Fluorophenyl)-3H-imidazo[4,5-c]pyridin-2-yl)-1H-pyrazolo[3,4-c]pyridin-5-yl)pyridin-3-yl)butyramide], with 17 nM.

The compound `O=C(Nc1cncc(-c2cc3c(-c4nc5c(-c6cccc(F)c6)cncc5[nH]4)n[nH]c3cn2)c1)C1CC1` [Compound 19, N-(5-(3-(7-(3-Fluorophenyl)-3H-imidazo[4,5-c]pyridin-2-yl)-1H-pyrazolo[3,4-c]pyridin-5-yl)pyridin-3-yl)cyclopropanecarboxamide] displayed an IC50 of 21.6 nM. As to `Fc1cccc(-c2cncc3[nH]c(-c4n[nH]c5cnc(-c6cncc(OC7CCNCC7)c6)cc45)nc23)c1` [Compound 892, 3-(7-(3-Fluorophenyl)-3H-imidazo[4,5-c]pyridin-2-yl)-5-(5-(piperidin-4-yloxy)pyridin-3-yl)-1H-pyrazolo[3,4-c]pyridine], the IC50 is > 10000 nM. Then `O=C(CC1CCCCC1)Nc1cncc(-c2cc3c(-c4nc5c(-c6cccc(F)c6)cncc5[nH]4)n[nH]c3cn2)c1` [Compound 899, 2-Cyclohexyl-N-(5-(3-(7-(3-fluorophenyl)-3H-imidazo[4,5-c]pyridin-2-yl)-1H-pyrazolo[3,4-c]pyridin-5-yl)pyridin-3-yl)acetamide], with 1740 nM; and `CC(C)CC(=O)Nc1cncc(-c2cc3c(-c4nc5c(-c6ccc(F)cc6)cncc5[nH]4)n[nH]c3cn2)c1` [Compound 28, N-(5-(3-(7-(4-Fluorophenyl)-3H-imidazo[4,5-c]pyridin-2-yl)-1H-pyrazolo[3,4-c]pyridin-5-yl)pyridin-3-yl)-3-methylbutanamide], with 170 nM. Then `Fc1cccc(-c2cncc3[nH]c(-c4n[nH]c5cnc(-c6cncc(OCc7ccccc7)c6)cc45)nc23)c1` [Compound 898, 5-(5-(Benzyloxy)pyridin-3-yl)-3-(7-(3-fluorophenyl)-3H-imidazo[4,5-c]pyridin-2-yl)-1H-pyrazolo[3,4-c]pyridine], with 520 nM; and `Fc1cccc(-c2cncc3[nH]c(-c4n[nH]c5cnc(-c6cnccn6)cc45)nc23)c1` [Compound 902, 3-(7-(3-Fluorophenyl)-3H-imidazo[4,5-c]pyridin-2-yl)-5-(pyrazin-2-yl)-1H-pyrazolo[3,4-c]pyridine], with 50 nM; and `O=C(Nc1cncc(-c2cc3c(-c4nc5c(-c6ccc(F)cc6)cncc5[nH]4)n[nH]c3cn2)c1)C1CCC1` [Compound 46, N-(5-(3-(7-(4-Fluorophenyl)-3H-imidazo[4,5-c]pyridin-2-yl)-1H-pyrazolo[3,4-c]pyridin-5-yl)pyridin-3-yl)cyclobutanecarboxamide], with 165 nM.

For the compound `CC(C)CC(=O)Nc1cncc(-c2cc3c(-c4nc5c(-c6cc(F)cc(OCCN(C)C)c6)cncc5[nH]4)n[nH]c3cn2)c1` [Compound 1192, N-(5-(3-(7-(3-(2-(Dimethylamino)ethoxy)-5-fluorophenyl)-3H-imidazo[4,5-c]pyridin-2-yl)-1H-pyrazolo[3,4-c]pyridin-5-yl)pyridin-3-yl)-3-methylbutanamide], the IC50 was > 10000 nM. On to `CCC(=O)Nc1cncc(-c2cc3c(-c4nc5c(-c6cccc(F)c6)cncc5[nH]4)n[nH]c3cn2)c1` [Compound 1, N-(5-(3-(7-(3-Fluorophenyl)-3H-imidazo[4,5-c]pyridin-2-yl)-1H-pyrazolo[3,4-c]pyridin-5-yl)pyridin-3-yl)propionamide], for which half-maximal inhibition (IC50) required 61 nM. In the case of `CC(C)C(=O)Nc1cncc(-c2cc3c(-c4nc5c(-c6ccccc6F)cncc5[nH]4)n[nH]c3cn2)c1` [Compound 61, N-(5-(3-(7-(2-Fluorophenyl)-3H-imidazo[4,5-c]pyridin-2-yl)-1H-pyrazolo[3,4-c]pyridin-5-yl)pyridin-3-yl)isobutyramide] it was 123 nM; in that of `CC(C)CC(=O)Nc1cncc(-c2cc3c(-c4nc5c(-c6cccs6)cncc5[nH]4)n[nH]c3cn2)c1` [Compound 288, 3-Methyl-N-(5-(3-(7-(thiophen-2-yl)-3H-imidazo[4,5-c]pyridin-2-yl)-1H-pyrazolo[3,4-c]pyridin-5-yl)pyridin-3-yl)butanamide], 79 nM. In the case of `CC(C)(C)CC(=O)Nc1cncc(-c2cc3c(-c4nc5c(-c6ccccc6F)cncc5[nH]4)n[nH]c3cn2)c1` [Compound 68, N-(5-(3-(7-(2-Fluorophenyl)-3H-imidazo[4,5-c]pyridin-2-yl)-1H-pyrazolo[3,4-c]pyridin-5-yl)pyridin-3-yl)-3,3-dimethylbutanamide] it was 167 nM; in that of `CCCCC(=O)Nc1cncc(-c2cc3c(-c4nc5c(-c6ccoc6)cncc5[nH]4)n[nH]c3cn2)c1` [Compound 278, N-(5-(3-(7-(Furan-3-yl)-3H-imidazo[4,5-c]pyridin-2-yl)-1H-pyrazolo[3,4-c]pyridin-5-yl)pyridin-3-yl)pentanamide], 115 nM. `CC(C)CC(=O)Nc1cncc(-c2cc3c(-c4nc5c(-c6cccc(F)c6)cncc5[nH]4)n[nH]c3cn2)c1` [Compound 2, N-(5-(3-(7-(3-Fluorophenyl)-3H-imidazo[4,5-c]pyridin-2-yl)-1H-pyrazolo[3,4-c]pyridin-5-yl)pyridin-3-yl)-3-methylbutanamide]: the IC50 turned out to be 120 nM. Then `CC(C)(C)C(=O)Nc1cncc(-c2cc3c(-c4nc5c(-c6ccc(F)cc6)cncc5[nH]4)n[nH]c3cn2)c1` [Compound 34, N-(5-(3-(7-(4-Fluorophenyl)-3H-imidazo[4,5-c]pyridin-2-yl)-1H-pyrazolo[3,4-c]pyridin-5-yl)pyridin-3-yl)pivalamide], with 174 nM.

For `Fc1cccc(-c2cncc3[nH]c(-c4n[nH]c5cnc(-c6cncc(OCCN7CCCC7)c6)cc45)nc23)c1` [Compound 894, 3-(7-(3-Fluorophenyl)-3H-imidazo[4,5-c]pyridin-2-yl)-5-(5-(2-(pyrrolidin-1-yl)ethoxy)pyridin-3-yl)-1H-pyrazolo[3,4-c]pyridine], the IC50 is > 10000 nM.

With `CC(C)Nc1cncc(-c2cc3c(-c4nc5c(-c6cccnc6)cncc5[nH]4)n[nH]c3cn2)c1` [Compound 90, N-Isopropyl-5-(3-(7-(pyridin-3-yl)-3H-imidazo[4,5-c]pyridin-2-yl)-1H-pyrazolo[3,4-c]pyridin-5-yl)pyridin-3-amine], the IC50 stood at 93.5 nM. Then `CC(C)CC(=O)Nc1cncc(-c2cc3c(-c4nc5c(-c6cc(F)cc(OCCN7CCCC7)c6)cncc5[nH]4)n[nH]c3cn2)c1` [Compound 1236, N-(5-(3-(7-(3-Fluoro-5-(2-(pyrrolidin-1-yl)ethoxy)phenyl)-3H-imidazo[4,5-c]pyridin-2-yl)-1H-pyrazolo[3,4-c]pyridin-5-yl)pyridin-3-yl)-3-methylbutanamide], with > 10000 nM; and `CC(C)C(=O)Nc1cncc(-c2cc3c(-c4nc5c(-c6cccnc6)cncc5[nH]4)n[nH]c3cn2)c1` [Compound 87, N-(5-(3-(7-(Pyridin-3-yl)-3H-imidazo[4,5-c]pyridin-2-yl)-1H-pyrazolo[3,4-c]pyridin-5-yl)pyridin-3-yl)isobutyramide], with > 10000 nM.
